Measured values: the supplement of paper PMC11003180

Experiments:
Test in all cases: drug sensitivity score (DSS) from 5-dose viability curve (DSS (area-based score, 0 = no response)); higher = more sensitive (stronger viability inhibition); extreme values may be limits of the assay
[1] = test system: MDCK p60AmotL2-inducible + doxycycline (p60AmotL2 expressing); details: doxycycline: 10 ng/mL; 72 h
How it was run: (§1)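 Parental MDCK cells and MDCK cells with doxycycline-inducible p60AmotL2, both given doxycycline at 10 ng/mL in the medium before plating, were dispensed at 2000 cells/well onto pre-spotted 384-well plates. The plates held an oncology library of 528 drugs at five doses (1-10,000 nM) and were incubated 72 h at 37 °C. Viability was read as CellTiter-Glo luminescence and scaled per plate between vehicle and positive controls. Drug sensitivity scores came from dose-response curve fits in the Breeze pipeline.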

[2] = test system: MDCK wild-type + doxycycline; details: doxycycline: 10 ng/mL; 72 h
How it was run: as §1

[3] = test system: MDCK wild-type - doxycycline; details: doxycycline: none; 72 h
How it was run: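 Viability of parental MDCK cells cultured without doxycycline was measured by CellTiter-Glo luminescence and scaled per plate between vehicle and positive controls. The cells had been exposed for 72 h to an oncology library of 528 drugs at five doses (1-10,000 nM). Drug sensitivity scores were calculated from dose-response curve fits in the Breeze pipeline.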

SMILES: CN1C(=O)N[C@H](Cc2c[nH]c3c(Cl)cccc23)C1=O [Necrostatin 2]
- drug sensitivity score [1]: 0
- drug sensitivity score [2]: 0
- drug sensitivity score [3]: 0

SMILES: Cc1cc([C@@H](C)Nc2ccccc2C(=O)O)c2nc(N3CCOCC3)cc(=O)n2c1 [AZD-6482]
- drug sensitivity score [1]: 0
- drug sensitivity score [2]: 0
- drug sensitivity score [3]: 0

SMILES: CN1CCN(c2ccc3nc(-c4c(N)c5c(F)cccc5[nH]c4=O)[nH]c3c2)CC1 [Dovitinib]
- drug sensitivity score [1]: 0
- drug sensitivity score [2]: 2.5
- drug sensitivity score [3]: 0

SMILES: NC(=O)c1cccc(-c2cccc(OC(=O)NC3CCCCC3)c2)c1 [URB597]
- drug sensitivity score [1]: 0
- drug sensitivity score [2]: 0
- drug sensitivity score [3]: 0

SMILES: CN1CCN(C2CCC(n3cc(-c4ccc(Oc5ccccc5)cc4)c4c(N)ncnc43)CC2)CC1 (stereo not drawn)
- drug sensitivity score [1]: 14
- drug sensitivity score [2]: 9.4
- drug sensitivity score [3]: 7

SMILES: O=C1CN2Cc3c(ccc(Cl)c3Cl)N=C2N1 [Anagrelide]
- drug sensitivity score [1]: 0
- drug sensitivity score [2]: 0
- drug sensitivity score [3]: 0

SMILES: Cc1ccc(NS(=O)(=O)c2cccc(C#N)c2)c2[nH]cc(C#N)c12 [E7820]
- drug sensitivity score [1]: 20.4
- drug sensitivity score [2]: 19.9
- drug sensitivity score [3]: 14.5

SMILES: CNC(=O)c1ccccc1Nc1cc(Nc2ccc(N3CCOCC3)cc2OC)ncc1C(F)(F)F [VS-4718]
- drug sensitivity score [1]: 5.6
- drug sensitivity score [2]: 4.7
- drug sensitivity score [3]: 3.6

SMILES: COc1ccc(CCc2nc3cc(-c4c(C)noc4C)ccc3n2C[C@H](C)N2CCOCC2)cc1Cl [SGC-CBP30]
- drug sensitivity score [1]: 4.3
- drug sensitivity score [2]: 2.7
- drug sensitivity score [3]: 0

SMILES: CC(C)C[C@H](NC(=O)[C@H](Cc1ccccc1)NC(=O)c1cnccn1)B(O)O [Bortezomib]
- drug sensitivity score [1]: 25
- drug sensitivity score [2]: 25.9
- drug sensitivity score [3]: 26.7

SMILES: CC(C)(C)c1cc(NC(=O)Nc2ccc(Oc3ccnc4[nH]c(=O)cnc34)cc2F)n(-c2ccccc2)n1
- drug sensitivity score [1]: 7
- drug sensitivity score [2]: 5.1
- drug sensitivity score [3]: 4.9

SMILES: O=c1[nH]c(C2CCCN2)nc2c1oc1ccc(Cl)cc12 (stereo not drawn)
- drug sensitivity score [1]: 0
- drug sensitivity score [2]: 0
- drug sensitivity score [3]: 0

SMILES: C[C@H](Nc1ncnc2nc[nH]c12)c1cc2cccc(Cl)c2c(=O)n1-c1ccccc1 [Duvelisib]
- drug sensitivity score [1]: 0
- drug sensitivity score [2]: 0
- drug sensitivity score [3]: 0

SMILES: CC[C@]12C=CCN3CC[C@@]4(c5cc([C@@]6(C(=O)OC)C[C@@H]7C[C@@H](C(C)(F)F)CN(Cc8c6[nH]c6ccccc86)C7)c(OC)cc5N(C)[C@H]4[C@@](O)(C(=O)OC)[C@@H]1OC(C)=O)[C@@H]32 [Vinflunine]
- drug sensitivity score [1]: 3.3
- drug sensitivity score [2]: 3.7
- drug sensitivity score [3]: 4.3

SMILES: COCCNCc1ccc(-c2cc3nccc(Oc4ccc(NC(=O)C5(C(=O)Nc6ccc(F)cc6)CC5)cc4F)c3s2)nc1 [Sitravatinib]
- drug sensitivity score [1]: 1.7
- drug sensitivity score [2]: 1.2
- drug sensitivity score [3]: 0

SMILES: CNc1nc(-c2ccc3c(N)n[nH]c3c2)cc(N2C[C@@H](C(=O)NC3CCCCC3)CC[C@H]2C)n1
- drug sensitivity score [1]: 0
- drug sensitivity score [2]: 0
- drug sensitivity score [3]: 0
